Patent US11191756B2, “Dosing and effect of C5a antagonist with ANCA-associated vasculitis” (CHEMOCENTRYX, INC., priority 2018, dated 2021)
“Also recorded” adds a separate entry of the source.

Legend:
Format in all cases: in vivo, human
complement factor C3a = experiment: Plasma complement factor C3a by ELISA in AAV patients of the CLEAR trial; conditions: for C3a levels compared to baseline: full dose prednisone; for C3a, change in plasma level (Summary of Results): AAV patients, 12 week treatment period, all also received cyclophosphamide or rituximab
Protocol: (§1) The CLEAR trial (Jayne D R W, et al. JASN 2017; 28:2756) compared 3 regimens in 67 patients with AAV: (1) full dose prednisone (60 mg daily, tapered); (2) avacopan 30 mg twice daily plus low dose prednisone (20 mg, tapered); (3) avacopan 30 mg twice daily plus no prednisone. All also received either cyclophosphamide or rituximab. There was a 12-week treatment period with 12 week follow-up period
(§2) Plasma samples were collected from AAV patients who participated in CLEAR study at baseline and at 6 hour, Days 8, 29, and 85 during treatment. Plasma samples from 20 health controls matched for age, gender and ethnic background were collected at UNC Kidney Center.
(§3) EDTA whole blood was kept on ice immediately after collection and centrifuged at 4° C. for plasma preparation. Plasma samples were stored at −80° C. freezer until analysis for complement Bb, C5a, […] and properdin by ELISA in one thaw.
(§4) Paired t-test was used for within group comparison and unpaired t-test was used for between group comparisons using log transformed data. P-values were corrected for multiple comparisons.

sC5b-9 = experiment: Plasma sC5b-9 by ELISA in AAV patients of the CLEAR trial; conditions: for sC5b-9, change in plasma level (Summary of Results): AAV patients, 12 week treatment period, all also received cyclophosphamide or rituximab; for circulating sC5b-9 levels, change from baseline: any treatment group, 6 h, days 8, 29, 85
Protocol: as §1, §2, §3, §4

complement factor Bb = experiment: Plasma complement factor Bb by ELISA in AAV patients of the CLEAR trial; conditions: for Bb, change in plasma level (Summary of Results): AAV patients, 12 week treatment period, all also received cyclophosphamide or rituximab
Protocol: as §1, §2, §3, §4

properdin = experiment: Plasma properdin by ELISA in AAV patients of the CLEAR trial; conditions: for Properdin, change in plasma level (Summary of Results): AAV patients, 12 week treatment period, all also received cyclophosphamide or rituximab; for circulating properdin levels, change from baseline: any treatment group, 6 h, days 8, 29, 85
Protocol: as §1, §2, §3, §4

complement factor C5a = experiment: Plasma complement factor C5a by ELISA in AAV patients of the CLEAR trial; conditions: for C5a, change in plasma level (Summary of Results): AAV patients, 12 week treatment period, all also received cyclophosphamide or rituximab
Protocol: as §1, §2, §3, §4

patients with AAV = experiment: CLEAR trial clinical outcome in ANCA-associated vasculitis; conditions: for clinical benefit / improvement in AAV: 12 week treatment period, avacopan 30 mg twice daily
Source text: (A) plots the Birmingham Vasculitis Activity Score; (B) plots the urinary albumin to creatine ration; (C) plots the EuroQOL-5D-5L visual analgue scale; (D) plots the Short Form-36 physical functioning results; and (E) plots the Short Form-36 role emotional results. Patients receiving high dose prednisone are plotted with diamonds; patients receiving avacopan with low dose prednisone are plotted with squares; and patients receiving avacopan with no prednisone are plotted with triangles.
as §1

[1] = day 85, when prednisone was tapered
[2] = CLEAR trial, AAV patients, avacopan with low dose or no prednisone

Row | Compound | C3a, change in plasma level (Summary of Results) (complement factor C3a) | sC5b-9, change in plasma level (Summary of Results) (sC5b-9) | circulating sC5b-9 levels, change from baseline (sC5b-9) | Bb, change in plasma level (Summary of Results) (complement factor Bb) | Properdin, change in plasma level (Summary of Results) (properdin) | circulating properdin levels, change from baseline (properdin) | C5a, change in plasma level (Summary of Results) (complement factor C5a) | other results
1 | C[C@]12C=CC(=O)C=C1CC[C@@H]1[C@@H]2C(=O)C[C@@]2(C)[C@H]1CC[C@]2(O)C(=O)CO [Prednisone, prednisone] | ↓ | No changes | No statistically significant changes | ↓ | No changes | No statistically significant changes | ↓ | C3a levels compared to baseline (complement factor C3a; 6 hours): decreased; C3a levels (complement factor C3a; [1]): rising again; also recorded: rose again; C3a levels compared to baseline (complement factor C3a; days 8 and 29): decreased significantly; also recorded: further decreased; Bb levels (complement factor Bb; [1]): rising again; also recorded: rose again; Bb levels compared to pre-dose (complement factor Bb; days 8 and 29, full dose prednisone 60 mg daily, tapered): decreased significantly; C5a levels compared to baseline (complement factor C5a; day 8 and 29, high dose prednisone): decreased significantly; also recorded: decrease; C5a levels (complement factor C5a; [1]): rising again; also recorded: rose again
2 | Cc1ccc(NC(=O)[C@H]2CCCN(C(=O)c3c(C)cccc3F)[C@H]2c2ccc(NC3CCCC3)cc2)cc1C(F)(F)F [Avacopan, avacopan] | No changes | No changes | did not change; also recorded: No statistically significant changes | No changes | No changes | No statistically significant changes | No changes | C3a levels during treatment compared to baseline (complement factor C3a; avacopan 30 mg twice daily without prednisone, 6 h, days 8, 29, 85): did not impact; also recorded: No change; clinical benefit / improvement in AAV (patients with AAV): achieved clinical benefit; also recorded: rapid improvement; clinical benefit / improvement in AAV (patients with AAV; listed as avacopan): rapidly improves; disease activity (Birmingham Vasculitis Activity Score, urinary albumin to creatinine ratio) (patients with AAV; [2]): rapid decrease; health-related quality of life (EuroQOL-5D-5L, Short Form-36) (patients with AAV; [2]): significant improvement; Bb levels during treatment compared to pre-dose (complement factor Bb; avacopan 30 mg twice daily with low dose or no prednisone, 6 h, days 8, 29, 85): did not impact; also recorded: No change; C5a levels during treatment compared to baseline (complement factor C5a; avacopan 30 mg twice daily with low or no prednisone, 6 h, days 8, 29, 85): did not impact; also recorded: No change
